The record followed here is ChEMBL document CHEMBL1139203, “Syntheses and antiproliferative evaluation of oxyphenisatin derivatives” (Bioorg Med Chem Lett, 2007).

In one data set the target is Cytochrome P450 3A4 (Homo sapiens, UniProt P08684). Briefly: Inhibition of human CYP3A4. In kind it is ADME.
The subject of a further data set is Serum. Briefly: Protein binding to human serum. In kind it is ADME, cell-free.
A further data set addresses Cytochrome P450 2C19 (Homo sapiens, UniProt P33261). In words: Inhibition of human CYP2C19. In kind it is ADME.
Data set [1] can be described thus: Permeability across human Caco-2 cell membrane. Type of data set: ADME, cell-based. To be noted: read-out: permeability.
For a further data set, the target named is Cytochrome P450 2C9 (Homo sapiens, UniProt P11712). Briefly: Inhibition of human CYP2C9. In kind it is ADME.
Data set [2] is described as follows: Antiproliferative activity against human MDA231 cells. In kind it is functional, cell-based. The note with it: MDA-MB-231.
Data set [3] in a line: Antiproliferative activity against human MDA468 cells. In kind it is functional, cell-based. To be noted: MDA-MB-468.
The next data set has as its target Cytochrome P450 2D6 (Homo sapiens, UniProt P10635). In words: Inhibition of human CYP2D6. In kind it is ADME.
Data set [4] in a line: Aqueous solubility at pH 7.0. Type of data set: physicochemical.
The target of a further data set is T1, Cytochrome P450 1A2 (Homo sapiens, UniProt P05177).
T1 sequence (P05177 whole entry): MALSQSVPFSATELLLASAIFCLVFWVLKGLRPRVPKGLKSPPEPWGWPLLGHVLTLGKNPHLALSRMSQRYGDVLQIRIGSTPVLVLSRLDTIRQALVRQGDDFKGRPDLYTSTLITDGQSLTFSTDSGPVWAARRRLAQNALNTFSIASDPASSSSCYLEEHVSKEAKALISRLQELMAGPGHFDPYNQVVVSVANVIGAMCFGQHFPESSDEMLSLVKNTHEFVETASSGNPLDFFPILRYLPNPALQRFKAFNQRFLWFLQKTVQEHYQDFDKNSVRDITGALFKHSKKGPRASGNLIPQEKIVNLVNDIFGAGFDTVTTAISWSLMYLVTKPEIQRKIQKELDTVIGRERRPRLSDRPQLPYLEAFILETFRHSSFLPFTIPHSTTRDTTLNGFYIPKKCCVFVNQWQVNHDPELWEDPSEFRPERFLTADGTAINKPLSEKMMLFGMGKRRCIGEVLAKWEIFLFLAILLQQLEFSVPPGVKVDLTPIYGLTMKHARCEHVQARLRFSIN
Briefly: Inhibition of human CYP1A2. In kind it is ADME.

As usually defined, the IC50 is the concentration that inhibits the measured activity by half. Low values mean greater potency in that assay, high ones weaker potency in that assay. For orientation: solubility means how much of the substance goes into solution per volume.

≈ marks a conversion by molar mass, not a printed value.

Cytochrome P450 2D6, sequence (P10635 whole entry): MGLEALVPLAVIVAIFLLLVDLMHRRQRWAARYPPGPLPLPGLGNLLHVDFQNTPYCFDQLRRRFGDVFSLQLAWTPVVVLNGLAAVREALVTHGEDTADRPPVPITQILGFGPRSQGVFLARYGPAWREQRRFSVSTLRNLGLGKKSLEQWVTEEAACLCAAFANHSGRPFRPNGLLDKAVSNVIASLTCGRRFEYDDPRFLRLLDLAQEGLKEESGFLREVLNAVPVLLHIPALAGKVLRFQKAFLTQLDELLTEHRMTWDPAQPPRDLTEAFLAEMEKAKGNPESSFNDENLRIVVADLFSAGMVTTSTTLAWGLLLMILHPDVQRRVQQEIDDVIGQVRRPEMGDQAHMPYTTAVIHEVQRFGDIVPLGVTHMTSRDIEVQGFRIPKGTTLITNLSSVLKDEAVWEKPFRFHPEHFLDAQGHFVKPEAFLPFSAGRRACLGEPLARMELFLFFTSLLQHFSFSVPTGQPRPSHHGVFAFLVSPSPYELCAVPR
Cytochrome P450 2C19, sequence (P33261 whole entry): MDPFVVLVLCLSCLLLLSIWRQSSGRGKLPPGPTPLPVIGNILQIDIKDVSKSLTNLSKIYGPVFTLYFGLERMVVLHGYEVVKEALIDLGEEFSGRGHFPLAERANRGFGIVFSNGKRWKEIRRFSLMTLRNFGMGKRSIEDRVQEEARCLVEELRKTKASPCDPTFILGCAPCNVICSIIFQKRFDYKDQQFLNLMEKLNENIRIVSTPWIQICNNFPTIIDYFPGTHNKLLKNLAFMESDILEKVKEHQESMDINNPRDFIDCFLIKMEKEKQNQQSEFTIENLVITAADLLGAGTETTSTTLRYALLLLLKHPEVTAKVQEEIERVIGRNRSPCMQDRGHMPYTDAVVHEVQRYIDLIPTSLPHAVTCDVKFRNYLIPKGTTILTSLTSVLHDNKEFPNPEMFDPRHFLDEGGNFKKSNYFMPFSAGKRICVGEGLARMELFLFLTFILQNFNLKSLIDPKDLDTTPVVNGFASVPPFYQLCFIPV
Cytochrome P450 3A4, sequence (P08684 whole entry): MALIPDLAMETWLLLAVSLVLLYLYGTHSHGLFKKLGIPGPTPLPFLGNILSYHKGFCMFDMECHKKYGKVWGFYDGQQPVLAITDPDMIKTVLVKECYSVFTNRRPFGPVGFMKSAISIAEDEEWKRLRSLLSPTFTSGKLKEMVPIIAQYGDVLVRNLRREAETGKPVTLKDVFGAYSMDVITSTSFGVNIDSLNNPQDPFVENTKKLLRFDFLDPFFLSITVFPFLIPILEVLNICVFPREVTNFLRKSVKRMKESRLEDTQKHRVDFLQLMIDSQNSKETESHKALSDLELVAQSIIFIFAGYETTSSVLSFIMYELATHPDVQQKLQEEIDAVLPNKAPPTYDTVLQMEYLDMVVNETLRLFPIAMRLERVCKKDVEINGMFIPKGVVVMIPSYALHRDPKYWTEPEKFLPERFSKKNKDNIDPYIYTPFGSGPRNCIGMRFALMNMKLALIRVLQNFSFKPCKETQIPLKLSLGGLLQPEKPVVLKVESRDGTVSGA
Cytochrome P450 2C9, sequence (P11712 whole entry): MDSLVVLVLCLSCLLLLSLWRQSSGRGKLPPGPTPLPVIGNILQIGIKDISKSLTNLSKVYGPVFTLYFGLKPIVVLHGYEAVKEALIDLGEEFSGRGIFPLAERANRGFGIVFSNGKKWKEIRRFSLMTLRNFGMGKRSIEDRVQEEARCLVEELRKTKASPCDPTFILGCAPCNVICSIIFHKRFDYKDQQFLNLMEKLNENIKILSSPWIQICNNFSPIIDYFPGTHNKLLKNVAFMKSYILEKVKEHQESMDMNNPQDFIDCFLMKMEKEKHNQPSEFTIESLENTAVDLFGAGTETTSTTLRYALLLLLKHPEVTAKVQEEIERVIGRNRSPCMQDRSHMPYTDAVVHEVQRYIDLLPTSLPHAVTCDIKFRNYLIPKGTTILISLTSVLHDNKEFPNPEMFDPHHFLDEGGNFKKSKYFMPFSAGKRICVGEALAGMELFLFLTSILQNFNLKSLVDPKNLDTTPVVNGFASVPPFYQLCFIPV

As to `O=C1Nc2c(ccc(F)c2F)C1(c1ccc(O)cc1)c1ccc(O)cc1`, the Activity at Cytochrome P450 3A4 was > 10 µM; in the data set with Serum, 98%; at Cytochrome P450 2C19, 1 µM; at Cytochrome P450 2C9, 1 µM; on Cytochrome P450 2D6 it was > 10 µM; on Cytochrome P450 1A2, > 10 µM. Besides, the Papp in data set [1] amounted to 4.31 ×10⁻⁶ cm/s. In addition, the IC50 in data set [2] was > 3000 nM; in data set [3] it was 3 nM. In data set [4], this compound gave a solubility of 230 µg/mL (≈ 651 µM).
On to `COc1ccc(C2(c3ccc(OC)cc3)C(=O)Nc3ccccc32)cc1`, for which the IC50 was > 3000 nM in data set [2] and 1800 nM in data set [3].
For `O=C1Nc2ccccc2C1(c1ccc(O)cc1)c1ccc(O)cc1` [OXYPHENISATINE], in that order: > 3000 nM and 112 nM.
Regarding `O=C(O)c1cccc2c1NC(=O)C2(c1ccc(O)cc1)c1ccc(O)cc1`, the half-maximal inhibitory concentration (IC50) in data set [2] and in data set [3] was > 3000 nM each time.
With `N#Cc1cccc2c1NC(=O)C2(c1ccc(O)cc1)c1ccc(O)cc1`, the values for the IC50 in data set [2] and in [3] were > 3000 nM and 57 nM, respectively.
For `O=C1Nc2c(I)cccc2C1(c1ccc(O)cc1)c1ccc(O)cc1`, in that order: > 3000 nM and 62 nM.
On to `O=C1Nc2c(C(F)(F)F)cccc2C1(c1ccc(O)cc1)c1ccc(O)cc1`, for which the Activity is > 10 µM on Cytochrome P450 3A4; 1 µM at Cytochrome P450 2C19; 1 µM at Cytochrome P450 2C9; > 10 µM on Cytochrome P450 2D6; > 10 µM on Cytochrome P450 1A2. The Papp in data set [1] was 1.96 ×10⁻⁶ cm/s. For the same compound, the concentration in solution in [4] (solubility) came to 640 µg/mL (≈ 1660 µM).
In the case of `Cc1cccc2c1NC(=O)C2(c1ccc(O)cc1)c1ccc(O)cc1`, the IC50 in data set [2] is > 3000 nM; in [3], 27 nM.
For `O=C1Nc2c(ccc3c2CCCCC3)C1(c1ccc(O)cc1)c1ccc(O)cc1`, in that order: > 3000 nM and 55 nM.
